{
  "source": "paper PMC11207065",
  "about": "“Abietane Diterpenes from Medusantha martiusii and Their Anti-Neuroinflammatory Activity” (Molecules, 2024)",
  "type_in_all_cases": "cell-based",
  "key": {"[1]": {"system": "nitric oxide production in LPS and IFN-γ-stimulated BV2 cells", "assay": "Nitric oxide (nitrite, Griess method) measurement in LPS and IFN-γ-stimulated BV2 cells", "details": "24 h; for Effect on nitrite (NO) levels versus control group: LPS and IFN-γ-stimulated BV2 cells; for IC50: Mus musculus, BV-2, LPS (500 ng/mL) and IFN-γ (5 ng/mL)-stimulated BV2 cells, 3.125–25 µM, mean ± SEM, read-out: IC50 on nitric oxide production inhibition", "experimental": "(§1) To determine the NO and TNF-α levels, BV2 cells were seeded in 96-well plates (1 × 10^6 cells/mL) in RPMI medium supplemented with 10% FBS and 1% penicillin-streptomycin in a 5% CO2 incubator at 37 °C. After four hours, the cells were exposed to LPS (500 ng/mL, Sigma Aldrich) and IFN-γ (5 ng/mL, Thermo Fisher) in the absence or presence of compounds 1 to 7 at a final concentration of 12.5 µM (for NO and TNF-α measurement) or 3.125–25 µM (to calculate the IC50 values on NO production inhibition), in five replicates. Quercetin (20 µM) was used as a positive control. After 24 h, cell-free supernatants were collected for NO quantification using the Griess method or stored at −80 °C for cytokine concentration determination. The TNF-α concentrations in the BV2 cell culture supernatants were assessed via enzyme-linked immunosorbent assay (ELISA) with an Invitrogen kit (Thermo Fisher, Viena, Austria)."}, "[2]": {"assay": "Cell viability (MTT assay) in BV2 cells", "details": "mouse, BV2 microglial cells, mean ± SEM (n = 5)", "experimental": "The cytotoxicity of compounds 1–7 was evaluated using the MTT (3-(4,5-dimethylthiazol-2-yl)-2,5-diphenyltetrazolium bromide) assay. The microglial BV2 cell line was obtained from the Rio de Janeiro Cell Bank (BCRJ), Brazil. The cells were cultured in Roswell Park Memorial Institute medium (RPMI; Sigma Aldrich, St. Louis, MO, USA) supplemented with 10% fetal bovine serum (FBS; Gibco, Grand Island, NY, USA) and 1% penicillin-streptomycin (Sigma Aldrich) at 37 °C with 5% CO2. Cells were seeded into 96-well plates at 1 × 10^5 cells/mL and incubated overnight. After that, the cells were incubated with compounds 1 to 7 (12.5, 25, or 50 μM) in five replicates for 24 h. Then, 110 μL of the supernatant were removed, and 10 μL of MTT solution (5 mg/mL) (Sigma Aldrich, St. Louis, MO, USA) were added. The plates were further incubated for four hours, followed by the addition of sodium dodecyl sulfate (SDS) (100 µL/well) to dissolve the formazan. Optical densities were measured using a spectrophotometer (BioTek Instruments microplate reader, Sinergy HT, Winooski, VT, USA) at a wavelength of 570 nm."}, "[3]": {"system": "TNF-α release from LPS and IFN-γ-stimulated BV2 cells", "assay": "TNF-α measurement (ELISA) in LPS and IFN-γ-stimulated BV2 cells", "details": "12.5 µM, 24 h", "experimental": "as §1"}},
  "data": [
    {"compound": "CC(C)C1=CC(=O)C2=C(C1=O)C(O)CC1C2(C)CC(O)C(O)C1(C)C", "note": "(stereo not shown) [Compound 1, Medusanthol A]", "values": [
      {"measurement": "Effect on nitrite (NO) levels versus control group", "setting": "[1]; 12.5 µM", "result": "significantly reduced nitrite levels"},
      {"measurement": "IC50", "setting": "[1]", "result": "3.12 ± 0.75", "unit": "µM"},
      {"measurement": "viability at 24 h, 12.5 µM", "setting": "[2]", "result": "88 ± 2.57", "unit": "%"},
      {"measurement": "viability at 24 h, 25 µM", "setting": "[2]", "result": "85.1 ± 1.54", "unit": "%"},
      {"measurement": "viability at 24 h, 50 µM", "setting": "[2]", "result": "76.3 ± 2.16", "unit": "%"},
      {"measurement": "Effect on TNF-α levels versus control group", "setting": "[3]", "result": "significantly reduced TNF-α levels"}
    ]},
    {"compound": "CC(C)c1cc2c(cc1O)C1(C)CC(O)C(O)C(C)(C)C1CC2=O", "note": "(stereo not shown) [Compound 2, Medusanthol B]", "values": [
      {"measurement": "Effect on nitrite (NO) levels versus control group", "setting": "[1]; 12.5 µM", "result": "significantly reduced nitrite levels"},
      {"measurement": "IC50", "setting": "[1]", "result": "15.5 ± 7.56", "unit": "µM"},
      {"measurement": "viability at 24 h, 12.5 µM", "setting": "[2]", "result": "81.93 ± 0.65", "unit": "%"},
      {"measurement": "viability at 24 h, 25 µM", "setting": "[2]", "result": "85.84 ± 0.85", "unit": "%"},
      {"measurement": "viability at 24 h, 50 µM", "setting": "[2]", "result": "75 ± 3.11", "unit": "%"},
      {"measurement": "Effect on TNF-α levels versus control group", "setting": "[3]", "result": "significantly reduced TNF-α levels"}
    ]},
    {"compound": "CC(C)c1cc2c(cc1O)C1(C)CC(O)C(O)C(C)(C)C1CC2", "note": "(stereo not shown) [Compound 3, Medusanthol C]", "values": [
      {"measurement": "Effect on nitrite (NO) levels versus control group", "setting": "[1]; 12.5 µM", "result": "significantly reduced nitrite levels"},
      {"measurement": "viability at 24 h, 12.5 µM", "setting": "[2]", "result": "87.4 ± 2.35", "unit": "%"},
      {"measurement": "viability at 24 h, 25 µM", "setting": "[2]", "result": "82.2 ± 0.96", "unit": "%"},
      {"measurement": "viability at 24 h, 50 µM", "setting": "[2]", "result": "76.4 ± 3.14", "unit": "%"}
    ]},
    {"compound": "CC(C)c1cc2c(cc1O)[C@@]1(C)C[C@@H](O)CC(C)(C)[C@@H]1CC2", "note": "[Compound 4, salviol]", "values": [
      {"measurement": "Effect on nitrite (NO) levels versus control group", "setting": "[1]; 12.5 µM", "result": "significantly reduced nitrite levels"},
      {"measurement": "viability at 24 h, 12.5 µM", "setting": "[2]", "result": "92.29 ± 0.6", "unit": "%"},
      {"measurement": "viability at 24 h, 25 µM", "setting": "[2]", "result": "85.41 ± 0.82", "unit": "%"},
      {"measurement": "viability at 24 h, 50 µM", "setting": "[2]", "result": "73.6 ± 2.73", "unit": "%"}
    ]},
    {"compound": "CC(=O)OC1CC(C)(C)C2CCc3cc(C(C)C)c(O)cc3C2(C(=O)O)C1", "note": "(stereo not shown) [Compound 5, Medusanthol D]", "values": [
      {"measurement": "Effect on nitrite (NO) levels versus control group", "setting": "[1]; 12.5 µM", "result": "No significant effect"},
      {"measurement": "viability at 24 h, 12.5 µM", "setting": "[2]", "result": "86.2 ± 4.53", "unit": "%"},
      {"measurement": "viability at 24 h, 25 µM", "setting": "[2]", "result": "86.8 ± 2.52", "unit": "%"},
      {"measurement": "viability at 24 h, 50 µM", "setting": "[2]", "result": "82.9 ± 3.63", "unit": "%"}
    ]},
    {"compound": "CC(C)c1cc2c(cc1O)[C@@]1(C)C[C@@H](O)CC(C)(C)[C@@H]1CC2=O", "note": "[Compound 6, 2α-hydroxysugiol]", "values": [
      {"measurement": "Effect on nitrite (NO) levels versus control group", "setting": "[1]; 12.5 µM", "result": "No significant effect"},
      {"measurement": "viability at 24 h, 12.5 µM", "setting": "[2]", "result": "85.7 ± 1.11", "unit": "%"},
      {"measurement": "viability at 24 h, 25 µM", "setting": "[2]", "result": "81.7 ± 1.37", "unit": "%"},
      {"measurement": "viability at 24 h, 50 µM", "setting": "[2]", "result": "66.8 ± 3.61", "unit": "%"}
    ]},
    {"compound": "CC(=O)OC1CC(C)(C)C2CC3OC(=O)C2(C1)c1cc(O)c(C(C)C)cc1O3", "note": "(stereo not shown) [Compound 7, Medusanthol E]", "values": [
      {"measurement": "Effect on nitrite (NO) levels versus control group", "setting": "[1]; 12.5 µM", "result": "significantly reduced nitrite levels"},
      {"measurement": "viability at 24 h, 12.5 µM", "setting": "[2]", "result": "82.74 ± 0.62", "unit": "%"},
      {"measurement": "viability at 24 h, 25 µM", "setting": "[2]", "result": "84.9 ± 1.4", "unit": "%"},
      {"measurement": "viability at 24 h, 50 µM", "setting": "[2]", "result": "81.8 ± 1.24", "unit": "%"}
    ]},
    {"compound": "O=c1c(O)c(-c2ccc(O)c(O)c2)oc2cc(O)cc(O)c12", "note": "[Quercetin, quercetin, reference compound]", "values": [
      {"measurement": "Effect on nitrite (NO) levels versus control group", "setting": "[1]; 20 µM (positive control)", "result": "significantly reduced nitrite levels"},
      {"measurement": "IC50", "setting": "[1]", "result": "11.8 ± 1.5", "unit": "µM"}
    ]}
  ]
}
